Source: patent US20230233576A1, “ECLITASERTIB FOR USE IN TREATING CONDITIONS INVOLVING SYSTEMIC HYPERINFLAMMATORY RESPONSE” (priority 2020, published 2023)

System: adult participants hospitalized for severe COVID-19
Assay: Phase 1b severe COVID-19 study: adverse events and deaths
Type: in vivo, human
Description: Safety evaluation was based on adverse events (Aes) including serious adverse events (SAEs) and adverse events of special interest (AESIs) (i.e., pregnancy, symptomatic overdose with IMP. Alanine aminotransferase [ALT] increase, and anemia), and treatment-emergent adverse events (TEAEs) leading to treatment discontinuation.
The primary focus of AE reporting was on treatment emergent adverse events (TEAEs). Treatment emergent adverse events were Aes that were not present at baseline or represented the exacerbation of a pre-existing condition during the on-treatment period (treatment-emergent period), defined as the time from the first administration of the IMP up to and including the day of last dose of study drug plus 5 days.
All adverse events were coded to a “preferred term (PT)”, “high-level term (HLT)”, “high-level group term (HLGT)”, and associated primary SOC using Medical Dictionary for Regulatory Activities (MedDRA) version 23.1.
The number and cumulative incidence rate of deaths [%] during the on-study period were computed by treatment group: number of deaths divided by the number of participants. Kaplan-Meier plot for time to death was presented by treatment group.

[1] = 600 mg (N = 47), Safety population

CN1C(=O)[C@@H](NC(=O)c2nnc(Cc3ccccc3)[nH]2)COc2cccnc21 [RIPK1 Inhibitor, (S)-5-benzyl-N-(5-methyl-4-oxo-2,3,4,5-tetrahydropyrido[3,2-b][1,4]oxazepin-3-yl)-4H-1,2,4-triazole-3-carboxamide]
4: TEAE, PT Diarrhoea: number of participants [1]
1 (2.1) n (%): Participants with TEAE(s) (SAE): PT Bacterial infection [1] | Participants with TEAE(s) (SAE): PT Peripheral artery thrombosis [1] | Participants with TEAE(s) (SAE): PT Pneumonia bacterial [1] | Participants with TEAE(s) (SAE): PT Pseudomonas infection [1] | Participants with TEAE(s) (SAE): PT Pulmonary embolism [1] | Participants with TEAE(s) (SAE): SOC RESPIRATORY, THORACIC AND M[…] [1] | Participants with TEAE(s) (SAE): SOC VASCULAR DISORDERS [1]
(2.1) %: TEAE, PT Anaemia: percentage of participants [1] | TEAE, PT Anxiety disorder: percentage of participants [1] | TEAE, PT Arterial injury: percentage of participants [1] | TEAE, PT Aspartate aminotransferase increased: percentage of participants [1] | TEAE, PT Back pain: percentage of participants [1] | TEAE, PT Bacterial infection: percentage of participants [1] | TEAE, PT Chest discomfort: percentage of participants [1] | TEAE, PT Constipation: percentage of participants [1] | TEAE, PT Dehydration: percentage of participants [1] | TEAE, PT Drug hypersensitivity: percentage of participants [1] | TEAE, PT Dyspnoea: percentage of participants [1] | TEAE, PT Emphysema: percentage of participants [1] | TEAE, PT Fatigue: percentage of participants [1] | TEAE, PT Flatulence: percentage of participants [1] | TEAE, PT Hyperglycaemia: percentage of participants [1] | TEAE, PT Hypertension: percentage of participants [1] | TEAE, PT Hypoglycaemia: percentage of participants [1] | TEAE, PT Hypophosphataemia: percentage of participants [1] | TEAE, PT Nausea: percentage of participants [1] | TEAE, PT Non-cardiac chest pain: percentage of participants [1] | TEAE, PT Oropharyngeal pain: percentage of participants [1] | TEAE, PT Peripheral artery thrombosis: percentage of participants [1] | TEAE, PT Pneumonia bacterial: percentage of participants [1] | TEAE, PT Pseudomembranous colitis: percentage of participants [1] | TEAE, PT Pseudomonas infection: percentage of participants [1]
3 (6.4) n (%): Participants with TEAE(s) (SAE): SOC INFECTIONS AND INFESTATIONS [1]
2 (4.3) n (%): Participants with TEAE(s) (SAE): PT Condition aggravated [1] | Participants with TEAE(s) (SAE): SOC GENERAL DISORDERS AND ADMINISTRATION SITE CONDITIONS [1]
6 (12.8) n (%): Participants with TEAE(s) (SAE): Any class [1]
(51.1) %: TEAE, Any class: percentage of participants [1]
(12.8) %: TEAE, PT Alanine aminotransferase increased: percentage of participants [1]
grade 2: intensity of the majority of the TEAEs (600 mg)
1 participants: participants with PCSAs in hemoglobin and hematocrits considered as TEAEs of anemia (600 mg)
6: TEAE, PT Alanine aminotransferase increased: number of participants [1]
0: TEAE, PT Blood pressure increased: number of participants [1] | TEAE, PT Cardiac arrest: number of participants [1] | TEAE, PT Cerebral ischaemia: number of participants [1] | TEAE, PT Cholelithiasis: number of participants [1] | TEAE, PT Dyspepsia: number of participants [1] | TEAE, PT Encephalopathy: number of participants [1] | TEAE, PT Furuncle: number of participants [1] | TEAE, PT Gastritis: number of participants [1] | TEAE, PT Gastrooesophageal sphincter insufficiency: number of participants [1] | TEAE, PT Metabolic acidosis: number of participants [1] | TEAE, PT Noninfective bronchitis: number of participants [1] | TEAE, PT Oesophageal ulcer: number of participants [1] | TEAE, PT Oesophagitis: number of participants [1] | TEAE, PT Ovarian cyst: number of participants [1] | TEAE, PT Pleural effusion: number of participants [1] | TEAE, PT Pneumomediastinum: number of participants [1] | TEAE, PT Pneumonia: number of participants [1] | TEAE, PT Pneumoperitoneum: number of participants [1] | TEAE, PT Pneumothorax: number of participants [1] | TEAE, PT Procedural pneumothorax: number of participants [1] | TEAE, PT Psychomotor hyperactivity: number of participants [1]
0 n (%): Participants with TEAE(s) (SAE): PT Cardiac arrest [1] | Participants with TEAE(s) (SAE): PT Respiratory failure [1] | Participants with TEAE(s) (SAE): SOC CARDIAC DISORDERS [1]
1: TEAE, PT Anaemia: number of participants [1] | TEAE, PT Anxiety disorder: number of participants [1] | TEAE, PT Arterial injury: number of participants [1] | TEAE, PT Aspartate aminotransferase increased: number of participants [1] | TEAE, PT Back pain: number of participants [1] | TEAE, PT Bacterial infection: number of participants [1] | TEAE, PT Chest discomfort: number of participants [1] | TEAE, PT Constipation: number of participants [1] | TEAE, PT Dehydration: number of participants [1] | TEAE, PT Drug hypersensitivity: number of participants [1] | TEAE, PT Dyspnoea: number of participants [1] | TEAE, PT Emphysema: number of participants [1] | TEAE, PT Fatigue: number of participants [1] | TEAE, PT Flatulence: number of participants [1] | TEAE, PT Hyperglycaemia: number of participants [1] | TEAE, PT Hypertension: number of participants [1] | TEAE, PT Hypoglycaemia: number of participants [1] | TEAE, PT Hypophosphataemia: number of participants [1] | TEAE, PT Nausea: number of participants [1] | TEAE, PT Non-cardiac chest pain: number of participants [1] | TEAE, PT Oropharyngeal pain: number of participants [1] | TEAE, PT Peripheral artery thrombosis: number of participants [1] | TEAE, PT Pneumonia bacterial: number of participants [1] | TEAE, PT Pseudomembranous colitis: number of participants [1] | TEAE, PT Pseudomonas infection: number of participants [1] | TEAE, PT Pulmonary embolism: number of participants [1]
24: TEAE, Any class: number of participants [1]
(8.5) %: TEAE, PT Diarrhoea: percentage of participants [1]
